From patent publication US8313934B2, “Reduction of the toxic effect of impurities from raw materials by extractive fermentation” (LS9, Inc., priority 2007, dated 2012)

Legend:
LS9-ID1 [1] = test: Extractive fermentation with toxin, with or without hydrophobic solvent: FAME production (GC); format: cell-based, E. coli; conditions: 24 h, % of no-toxin control; for % FAME titer With C2:C18: ethyl oleate 1:3
Experimental: The production of fatty acid methyl and ethyl esters was analyzed by gas chromatography with flame ionization detector (GC-FID). The samples from fermentation broth were extracted with ethyl acetate in a ratio of 1:1 vol/vol. After strong vortexing, the samples were centrifuged and the organic phase was analyzed by gas chromatography (GC). The analysis conditions were as follows: instrument: Trace GC Ultra, Thermo Electron Corporation with Flame ionization detector (FID) detector; column: DB-1 (1% diphenyl siloxane; 99% dimethyl siloxane) CO1 UFM 1/0.1/5 01 DET from Thermo Electron Corporation, phase pH 5, FT: 0.4 μm, length 5 m, id: 0.1 mm; inlet conditions: 250° C. splitless, 3.8 min 1/25 split method used depending upon sample concentration with split flow of 75 ml/min; carrier gas, flow rate: Helium, 3.0 ml/min; block temperature: 330° C.; oven temperature: 0.5 minute hold at 50° C.; 100° C./minute to 330° C., 0.5 minute hold at 330° C.; detector temperature: 300° C.; injection volume: 2 μL; run time/flow rate: 6.3 min/3.0 ml/min (splitless method), 3.8 min/1.5 ml/min (split 1/25 method), 3.04 min/1.2 ml/min (split 1/50 method).
To determine the ability to perform extractive fermentations using products generated by the engineered strain of E. coli, LS9-ID1, to improve the performance of the fermentation in the presence of toxins, the fermentations were performed using a protocol similar to that described in example 1, above. Two sets of duplicate flasks were prepared with different concentrations of the toxin to be tested. One set served as the control, which included the toxin without the extractant, the hydrophobic solvent. In the second set, the extractant was added in a ratio of 1 volume of solvent per 3 volumes of fermentation broth. The flasks were then inoculated and incubated at 37° C. in agitated shakers. When the OD 600 reached a value of 1, the cultures were induced by the addition of 1 mM IPTG and 20 ml/L methanol. Cell growth and production of fatty acids methyl esters (FAME) was measured at 24 hours. In cultures without hydrophobic solvents (control), OD was measured directly in the fermentation broth. In flasks with solvent there was interference in OD measurement, and to eliminate this problem, the broth was centrifuged and the cell pellet was resuspended in the same volume of distilled water. The OD was measured in this suspension.
(§1) To analyze FAME production, 0.5 ml of broth was well mixed with 0.5 ml of ethylacetate. The organic phase was analyzed by gas chromatography. In the samples with solvents, additional dilutions were applied. All the toxins were tested with ethyl oleate (C2:C18 ester, or C2:C18) as a solvent representative of a biodiesel. Growth and FAME production are reported as percentage of the control condition (no toxin added). Each result is the average of duplicate experiments.

LS9-ID1 [2] = test: Extractive fermentation with toxin, with or without hydrophobic solvent: cell growth (OD600); format: cell-based, E. coli; conditions: for % Growth With C1:C12: methyl laureate as solvent; for % Growth With Hexadecane: hexadecane as solvent; for % Growth With Eicosadecene: eicosadecene as solvent; for % Growth With Biodiesel: commercial biodiesel as solvent
Experimental: Two sets of duplicate flasks were prepared with different concentrations of the toxin to be tested. One set served as the control, which included the toxin without the extractant, the hydrophobic solvent. In the second set, the extractant was added in a ratio of 1 volume of solvent per 3 volumes of fermentation broth. The flasks were then inoculated and incubated at 37° C. in agitated shakers. When the OD 600 reached a value of 1, the cultures were induced by the addition of 1 mM IPTG and 20 ml/L methanol. Cell growth and production of fatty acids methyl esters (FAME) was measured at 24 hours. In cultures without hydrophobic solvents (control), OD was measured directly in the fermentation broth. […] The OD was measured in this suspension.
as §1
The solvents methyl laureate (C1:C12 ester, or C1:C12), hexadecane (an alkane), eicosadecene (an alkene) and commercial biodiesel were tested.

E. coli = conditions: minimal inhibitory concentration that completely inhibits growth, as reported in the literature; cited from earlier work
LS9-ID1 [3] = test: Effect of common toxins on growth of the production strain (shake flasks, OD); format: cell-based, E. coli; conditions: for % Inhibition for LS9-ID1: toxin added at the reported MIC, growth by OD vs control without toxin
Experimental: A culture of a genetically engineered strain of E. coli, LS9-ID1, was transferred from a frozen stock and incubated in Luria-Bertani broth for approximately three hours. The culture was transferred to a defined mineral medium commonly used for E. coli, M9, buffered and supplemented with thiamine and trace minerals. The culture was further incubated and used to inoculate the same fermentation media with 50 g/L of carbohydrate (glucose, fructose, some pentoses).
The toxicity towards microbial strains of many of the compounds in hemicelluloses and cellulose hydrolysates has been examined individually. In the case of E. coli, the toxicity is related to the hydrophobicity of the toxin. The effects of several of these compounds on the growth of certain microbial strains were evaluated. The tests were done in shake flasks by following a protocol similar to that described in example 1, above, but without the induction and the addition of alcohols.
Other concentrations were also tested to determine the range where the effect was observed. The inhibition level was reported as the ratio between growth in the absence of the toxin (control) minus growth in the presence of the toxin and growth in the control.

LS9-ID1 [4] = test: Solvent pretreatment of toxin-spiked media before fermentation: cell growth; format: cell-based, E. coli; conditions: Table 12, toxin 1.5 g/L; for % Growth With Pretreatment: media extracted with methyl laureate 1:3 vol:vol, 37° C., 60 minutes, before inoculation; for % Growth No solvent: untreated media
Excerpt: The raw materials can be treated to remove the toxin prior to the fermentation. For this purpose it will be possible to use the bioproduct after the initial steps of purification (centrifugal separation for example) but prior to any polishing or finishing step. The sugar containing raw material can be placed in contact with the solvent in a batch or in a continuous counter current mode. After extraction, the raw material (aqueous phase) can be separated from the solvent by decantation or centrifugation.
Tests were performed similarly to that described in the above Examples. Fermentation media was prepared and spiked with the desired concentration of the toxin. Methyl laureate was used as a solvent representative of biodiesel. It was added to the fermentation media in a 1:3 vol:vol ratio. Solvent and broth were thoroughly mixed at 37° C. for 60 minutes. The aqueous layer was decanted in a separatory funnel and collected. The resulting media was then inoculated with LS9-ID1 and growth was compared against similar media containing the toxin but which had not been treated.

[5] = toxin 1.5 g/L, ethyl oleate 1:3 vol solvent:broth, 24 h, % of no-toxin control
[6] = toxin 1.5 g/L, 24 h, % of no-toxin control (Tables 3-7)
[7] = toxin 3.0 g/L, ethyl oleate 1:3, 24 h, % of no-toxin control
[8] = toxin 3.0 g/L, 24 h, % of no-toxin control (Tables 3-7)

Row | Structure (SMILES) | % Growth With C1:C12 (LS9-ID1 [2]; Table 8, toxin 1.5 g/L) [%] | % Growth No solvent (LS9-ID1 [2]; Table 8, toxin 1.5 g/L) [%] | % Growth With Hexadecane (LS9-ID1 [2]; Table 9, toxin 1.5 g/L) [%] | % Growth No solvent (LS9-ID1 [2]; Table 9, toxin 1.5 g/L) [%] | % Growth With Eicosadecene (LS9-ID1 [2]; Table 10, toxin 1.5 g/L) [%] | % Growth No solvent (LS9-ID1 [2]; Table 10, toxin 1.5 g/L) [%] | Reported MIC (E. coli) [µg/mL] | % Inhibition for LS9-ID1 (LS9-ID1 [3]) [%] | % Growth With Pretreatment (LS9-ID1 [4]) [%] | % Growth No solvent (LS9-ID1 [4]) [%] | % FAME titer With C2:C18 (LS9-ID1 [1]; toxin 1.5 g/L) [%] | % FAME titer No solvent (LS9-ID1 [1]; toxin 1.5 g/L) [%] | % FAME titer With C2:C18 (LS9-ID1 [1]; toxin 3.0 g/L) [%] | % FAME titer No solvent (LS9-ID1 [1]; toxin 3.0 g/L) [%] | % Growth With Biodiesel (LS9-ID1 [2]; Table 11, toxin 1.5 g/L) [%] | % Growth No solvent (LS9-ID1 [2]; Table 11, toxin 1.5 g/L) [%] | % Growth With C2:C18 (LS9-ID1 [2]; [5]) [%] | % Growth No solvent (LS9-ID1 [2]; [6]) [%] | % Growth With C2:C18 (LS9-ID1 [2]; [7]) [%] | % Growth No solvent (LS9-ID1 [2]; [8]) [%] | further results
1 | O=Cc1ccc(O)cc1 [4-hydroxybenzaldehyde] | 33.0 | 20.2 | 53.8 | 6.2 | 11.2 | 9.6 | 1250 | 100 |  |  |  |  |  |  |  |  |  |  |  |  | % FAME titer With C2:C18 (LS9-ID1 [1]; toxin 0.63 g/L): 72.6%; % FAME titer No solvent (LS9-ID1 [1]; toxin 0.63 g/L): 54.3%; % FAME titer With C2:C18 (LS9-ID1 [1]; toxin 1.25 g/L): 31.8%; % FAME titer No solvent (LS9-ID1 [1]; toxin 1.25 g/L): 18.1%; % Growth With C2:C18 (LS9-ID1 [2]; toxin 0.63 g/L, ethyl oleate 1:3, 24 h, % of no-toxin control): 68.0%; % Growth No solvent (LS9-ID1 [2]; toxin 0.63 g/L, 24 h, % of no-toxin control): 70.0%; % Growth With C2:C18 (LS9-ID1 [2]; toxin 1.25 g/L, ethyl oleate 1:3, 24 h, % of no-toxin control): 60.0%; % Growth No solvent (LS9-ID1 [2]; toxin 1.25 g/L, 24 h, % of no-toxin control): 45.0%
2 | O=Cc1ccc(CO)o1 [5-Hydroxymethylfurfural] |  |  |  |  |  |  | 4000 | 100 |  |  |  |  |  |  |  |  |  |  |  |  | % Growth With Hexadecane (LS9-ID1 [2]; Table 9, toxin 2.0 g/L): 57.1%; % Growth No solvent (LS9-ID1 [2]; Table 9, toxin 2.0 g/L): 39.8%; % Growth With Eicosadecene (LS9-ID1 [2]; Table 10, toxin 2.0 g/L): 55.3%; % Growth No solvent (LS9-ID1 [2]; Table 10, toxin 2.0 g/L): 51.8%; % Growth With C2:C18 (LS9-ID1 [2]; toxin 4.0 g/L, ethyl oleate 1:3, 24 h, % of no-toxin control): 20.9%; % Growth No solvent (LS9-ID1 [2]; toxin 4.0 g/L, 24 h, % of no-toxin control): 4.7%; % Growth With C2:C18 (LS9-ID1 [2]; toxin 8.0 g/L, ethyl oleate 1:3, 24 h, % of no-toxin control): 9.1%; % Growth No solvent (LS9-ID1 [2]; toxin 8.0 g/L, 24 h, % of no-toxin control): 2.2%
3 | Cc1ccc(O)c(O)c1 [4-Methyl catechol] |  |  |  |  |  |  | 1500 | 25 |  |  |  |  |  |  |  |  |  |  |  |  | 
4 | COc1cc(C=O)cc(OC)c1O [Syringaldehyde] |  |  | 40.7 | 19.5 | 48.2 | 8.8 | 2500 | 100 | 83.3 | 8.8 | 94.8 | 16.2 | 92.7 | 2.0 | 39.2 | 8.8 | 41.0 | 34.4 | 14.8 | 6.6 | % Growth With Co-treatment (LS9-ID1 [4]; co-treatment): 61.2%
5 | O=Cc1ccco1 [Furfural] |  |  | 38.5 | 17.7 | 56.7 | 33.3 | 3500 | 100 | 69.6 | 33.3 | 72.7 | 35.5 | 43.2 | 4.5 | 49.7 | 33.3 | 71.9 | 40.0 | 53.6 | 21.5 | % Growth With C1:C12 (LS9-ID1 [2]; Table 8, toxin 3.0 g/L): 16.7%; % Growth No solvent (LS9-ID1 [2]; Table 8, toxin 3.0 g/L): 6.1%; % of Growth inhibition (LS9-ID1 [3]; toxin 1.00 g/L): 0%; % of Growth inhibition (LS9-ID1 [3]; toxin 1.50 g/L): 60.0%; % of Growth inhibition (LS9-ID1 [3]; toxin 3.00 g/L): 18.5%
6 | COc1ccccc1O [Guaiacol] | 88.6 | 18.3 | 41.8 | 12.7 | 31.8 | 15.8 | 3000 | 100 |  |  | 100.5 | 10.2 | 76.2 | 2.3 |  |  | 93.7 | 30.4 | 65.1 | 12.5 | % of Growth inhibition (LS9-ID1 [3]; toxin 1.00 g/L): 0%; % of Growth inhibition (LS9-ID1 [3]; toxin 1.50 g/L): 41.7%; % of Growth inhibition (LS9-ID1 [3]; toxin 2.00 g/L): 83.3%; % of Growth inhibition (LS9-ID1 [3]; toxin 3.00 g/L): 100%
